Patent publication US20140193827A1 (TEVA PHARMACEUTICAL INDUSTRIES, LTD., priority 2013, published 2014)

Test system: GA-primed murine splenocytes
Assay: Tolerance method for assessing process variability
[1] = microarray, splenocytes activated 24 hours

## glatiramer acetate [GA]
[1]
  AVG expression of 1110067B18RIK, probe ILMN_2514723: 8.228
  AVG expression of 1190002H23RIK, probe ILMN_2593774: 7.583
  AVG expression of 1700129I04RIK, probe ILMN_1224390: 6.752
  AVG expression of 2810485I05RIK, probe ILMN_2695217: 10.37
  AVG expression of A130087I02RIK, probe ILMN_1232144: 6.482
  AVG expression of A630077B13RIK, probe ILMN_1249864: 9.099
  AVG expression of A930005H10RIK, probe ILMN_1250135: 10.04
  AVG expression of ADA, probe ILMN_2686132: 7.525
  AVG expression of AI467606, probe ILMN_1213645: 10.38
  AVG expression of ANKRD11, probe ILMN_2727235: 9.978
  AVG expression of APPL2, probe ILMN_1219978: 7.742
  AVG expression of ARHGAP4, probe ILMN_2677876: 11.38
  AVG expression of ARRB2, probe ILMN_2700848: 9.049
  AVG expression of AVIL, probe ILMN_2753149: 6.407
  AVG expression of B3GNT7, probe ILMN_2655571: 6.563
  AVG expression of B230345P09RIK, probe ILMN_2469190: 8.997
  AVG expression of BATF3, probe ILMN_2526739: 6.73
  AVG expression of BC038822, probe ILMN_2804103: 7.38
  AVG expression of BC065085, probe ILMN_2974737: 7.582
  AVG expression of BEX4, probe ILMN_3118584: 6.717
  AVG expression of BLVRB, probe ILMN_2770917: 9.003
  AVG expression of C3, probe ILMN_2759484: 8.352
  AVG expression of C130078N17RIK, probe ILMN_2522495: 10.34
  AVG expression of C230082I21RIK, probe ILMN_1248824: 8.744
  AVG expression of C430002D13RIK, probe ILMN_2571616: 7.951
  AVG expression of CCND2, probe ILMN_1225932: 8.425
  AVG expression of CCNG1, probe ILMN_2710229: 8.72
  AVG expression of CCR6, probe ILMN_2888448: 11.42
  AVG expression of CD44, probe ILMN_1223697: 10.12
  AVG expression of CHD3, probe ILMN_2524861: 7.978
  AVG expression of CHKA, probe ILMN_3026397: 12.08
  AVG expression of CLASP1, probe ILMN_1225769: 7.92
  AVG expression of CLIC4, probe ILMN_2599018: 7.206
  AVG expression of CLSPN, probe ILMN_2858359: 8.857
  AVG expression of CRTC3, probe ILMN_1248891: 8.262
  AVG expression of CSNK1G3, probe ILMN_2793946: 9.73
  AVG expression of CYP51, probe ILMN_2688075: 9.707
  AVG expression of DEADC1, probe ILMN_2705097: 9.246
  AVG expression of DGKZ, probe ILMN_1239607: 8.46
  AVG expression of DLM1-PENDING, probe ILMN_1218547: 6.869
  AVG expression of DYRK2, probe ILMN_3138439: 6.905
  AVG expression of E2F3, probe ILMN_2743503: 7.726
  AVG expression of EG433016, probe ILMN_2995688: 8.853
  AVG expression of ENTPD5, probe ILMN_3149143: 7.434
  AVG expression of F2RL1, probe ILMN_2769567: 6.312
  AVG expression of FBXO4, probe ILMN_2772920: 9.934
  AVG expression of FOSL2, probe ILMN_1252481: 8.057
  AVG expression of FOXP3, probe ILMN_2917180: 7.709
  AVG expression of FSCN1, probe ILMN_2630605: 8.879
  AVG expression of FXYD5, probe ILMN_1235493: 10.05
  AVG expression of GAB3, probe ILMN_3133748: 7.208
  AVG expression of GRN, probe ILMN_2595973: 10.66
  AVG expression of H3F3B, probe ILMN_1231168: 8.812
  AVG expression of HAMP, probe ILMN_1236304: 6.455
  AVG expression of HEG1, probe ILMN_2600022: 7.682
  AVG expression of HIST2H2AA1, probe ILMN_2751948: 7.127
  AVG expression of HTT, probe ILMN_2672091: 7.448
  AVG expression of IFITM1, probe ILMN_2814484: 7.066
  AVG expression of IFNGR2, probe ILMN_2784272: 9.806
  AVG expression of IGK-V5, probe ILMN_2631259: 11.21
  AVG expression of IL1A, probe ILMN_1227018: 8.103
  AVG expression of IL13, probe ILMN_2927131: 6.7
  AVG expression of IRF8, probe ILMN_2673369: 10.92
  AVG expression of KIF1B, probe ILMN_2587761: 6.394
  AVG expression of LDHA, probe ILMN_1257965: 12.99
  AVG expression of LOC386005, probe ILMN_2538029: 10.77
  AVG expression of LOC637711, probe ILMN_1239601: 8.053
  AVG expression of LOC677643, probe ILMN_1225733: 9.931
  AVG expression of LOC100043671, probe ILMN_1258600: 9.958
  AVG expression of LOC100046496, probe ILMN_1229263: 10.5
  AVG expression of LOC100046793, probe ILMN_2469743: 12
  AVG expression of LOC100047316, probe ILMN_1215825: 8.765
  AVG expression of LY78, probe ILMN_2585533: 7.951
  AVG expression of MSH5, probe ILMN_1241923: 6.819
  AVG expression of NFAT5, probe ILMN_2612448: 9.617
  AVG expression of NKG7, probe ILMN_1217855: 9.69
  AVG expression of PEA15, probe ILMN_2624938: 8.032
  AVG expression of PEX11C, probe ILMN_2467365: 6.162
  AVG expression of RABAC1, probe ILMN_1244857: 10.79
  AVG expression of RDM1, probe ILMN_1218934: 9.296
  AVG expression of RFC3, probe ILMN_2543834: 7.31
  AVG expression of RNF167, probe ILMN_2892856: 9.181
  AVG expression of RUNDC3B, probe ILMN_2660596: 7.1822
  AVG expression of SCN4A, probe ILMN_2814847: 7.299
  AVG expression of SDF2L1, probe ILMN_1221943: 9.843
  AVG expression of SERPINA3H, probe ILMN_2889832: 7.95
  AVG expression of SGCB, probe ILMN_1255256: 7.292
  AVG expression of SH3RF1, probe ILMN_2602597: 7.302
  AVG expression of SLC25A1, probe ILMN_2619846: 8.032
  AVG expression of SLCO3A1, probe ILMN_2663230: 8.007
  AVG expression of SMOX, probe ILMN_2597030: 8.19
  AVG expression of SPN, probe ILMN_2574982: 6.823
  AVG expression of STK4, probe ILMN_3004142: 11.07
  AVG expression of TARDBP, probe ILMN_3093089: 8.366
  AVG expression of TBCD, probe ILMN_2891506: 9.516
  AVG expression of TNF, probe ILMN_2899863: 8.846
  AVG expression of TNFAIP3, probe ILMN_1252202: 9.205
  AVG expression of TNIP1, probe ILMN_2417863: 10.34
  AVG expression of UBAC2, probe ILMN_2484838: 8.614
  AVG expression of UBAC2, probe ILMN_2949605: 10.08
  AVG expression of UBE2L6, probe ILMN_2431619: 8.561
  AVG expression of UCHL5, probe ILMN_1240153: 8.74
  AVG expression of VAMP4, probe ILMN_2516348: 8.312
  AVG expression of WDR68, probe ILMN_2546073: 7.546
  AVG expression of ZBP1, probe ILMN_1228653: 7.444
Probe IIMN_2700166
  AVG expression CCND2: 11.38
Probe ILMN_1212653
  AVG expression RFTN2: 7.109
Probe ILMN_1212982
  AVG expression ZFP318: 9.704
Probe ILMN_1213609
  AVG expression TXNIP: 11.89
Probe ILMN_1213954
  AVG expression SGK1: 9.667
Probe ILMN_1214071
  AVG expression IFITM1: 11.55
Probe ILMN_1214294
  AVG expression SNX29: 7.713
Probe ILMN_1214783
  AVG expression A530050E01RIK: 7.616
Probe ILMN_1214841
  AVG expression IL24: 7.762
Probe ILMN_1214998
  AVG expression HSD11B1: 8.421
Probe ILMN_1215796
  AVG expression LOC100046608: 7.035
Probe ILMN_1215862
  AVG expression CXCL9: 9.757
Probe ILMN_1216042
  AVG expression APOE: 7.5268
Probe ILMN_1216313
  AVG expression STIM1: 8.348
Probe ILMN_1217102
  AVG expression TPCN1: 8.543
Probe ILMN_1217180
  AVG expression IFITM1: 11.85
Probe ILMN_1217389
  AVG expression PKIB: 11.19
Probe ILMN_1217408
  AVG expression PRKACB: 11.88
Probe ILMN_1217629
  AVG expression ITGAE: 7.553
Probe ILMN_1217723
  AVG expression STAU2: 8.737
Probe ILMN_1217899
  AVG expression ITK: 7.055
Probe ILMN_1217913
  AVG expression D230007K08RIK: 9.225
Probe ILMN_1218036
  AVG expression SCO1: 9.072
Probe ILMN_1218037
  AVG expression TMIE: 8.752
Probe ILMN_1218181
  AVG expression IFITM6: 6.28
Probe ILMN_1218240
  AVG expression CD69: 11.83
Probe ILMN_1218525
  AVG expression IL18R1: 7.946
Probe ILMN_1218533
  AVG expression A630054M16RIK: 8.828
Probe ILMN_1218717
  AVG expression LOC385615: 8.213
Probe ILMN_1218799
  AVG expression EMB: 9.501
Probe ILMN_1219017
  AVG expression 5031436O03RIK: 7.811
Probe ILMN_1219860
  AVG expression LTK: 7.398
Probe ILMN_1219896
  AVG expression LOC623121: 9.039
Probe ILMN_1220101
  AVG expression EBI2: 11.29
Probe ILMN_1220236
  AVG expression CTSG: 7.594
Probe ILMN_1220397
  AVG expression TTC28: 7.127
Probe ILMN_1220788
  AVG expression GM590: 8.022
Probe ILMN_1221048
  AVG expression PSAT1: 10.49
Probe ILMN_1221311
  AVG expression TTYH3: 7.858
Probe ILMN_1221516
  AVG expression LOC100048841: 7.303
Probe ILMN_1221530
  AVG expression ADCY7: 8.272
Probe ILMN_1221700
  AVG expression ELA2: 6.367
Probe ILMN_1221819
  AVG expression FCGRT: 8.525
Probe ILMN_1221820
  AVG expression FAIM3: 13.69
Probe ILMN_1222036
  AVG expression PAQR7: 6.448
Probe ILMN_1222543
  AVG expression UGT1A10: 6.383
Probe ILMN_1222821
  AVG expression ROGDI: 8.291
Probe ILMN_1223600
  AVG expression INDO: 7.297
Probe ILMN_1224116
  AVG expression SMPDL3A: 7.588
Probe ILMN_1224336
  AVG expression SPSB1: 8.95
Probe ILMN_1224473
  AVG expression LOC380797: 8.096
Probe ILMN_1224945
  AVG expression E130113K22RIK: 7.685
Probe ILMN_1225085
  AVG expression PRKCB: 11.14
Probe ILMN_1225132
  AVG expression 4930519L02RIK: 7.525
Probe ILMN_1225214
  AVG expression CDKN2D: 8.24
Probe ILMN_1225730
  AVG expression FDPS: 12.65
Probe ILMN_1225764
  AVG expression MFSD2: 8.49
Probe ILMN_1226514
  AVG expression GAB3: 7.563
Probe ILMN_1226755
  AVG expression E030007N04RIK: 8.626
Probe ILMN_1226901
  AVG expression MAN2A2: 6.871
Probe ILMN_1227277
  AVG expression D9ERTD392E: 9.413
Probe ILMN_1227434
  AVG expression ITGB7: 9.885
Probe ILMN_1227570
  AVG expression LOC386545: 8.23
Probe ILMN_1227900
  AVG expression IL12RB1: 8.071
Probe ILMN_1227907
  AVG expression GMFG: 10.95
Probe ILMN_1228213
  AVG expression IFI30: 12.19
Probe ILMN_1228804
  AVG expression A430106G13RIK: 6.595
Probe ILMN_1228832
  AVG expression NGP: 8.125
Probe ILMN_1228917
  AVG expression C330023M02RIK: 9.763
